Source: patent US20180200275A1, “METHOD AND THE USE TO IMPROVE ORAL ABSORPTION OF NICOTINAMIDE AND NICOTINAMIDE RIBOSIDE” (Better Standing Company Inc., priority 2017, published 2018)

Key:
[1] = effects noted by a person (the inventor) after oral consumption; assay type: in vivo, human; details: 50 mg nicotinamide or 125 mg N-Ribosylnicotinamide chloride with water only, one person
[2] = cited from earlier work

## NC(=O)c1cccnc1 [nicotinamide, 3-pyridinecarboxamide]
[1]
  effects of consuming shortly before bed with water only: no discernible effects
[2]
  pKa of the pyridine ring nitrogen atom: 4.14
